# Measured values published in US20200323780A1, “BILAYER COMBINATION TABLET FOR ORAL ADMINISTRATION CONTAINING TRAMADOL AND CELECOXIB” (KIMS HEALTHCARE CO., LTD., priority 2017, published 2020).
# Where two headings read alike, the source gives them in different places.
# Tests used:
# [1] = cited from earlier work
# [2] = cited from earlier work; remark: listed apart in the source
# [3] = test system: conditioned place preference; assay: Psychological dependence on tramadol by change in conditioned place preference (CPP); assay type: in vivo, Sprague-Dawley rats; conditions: rats; for Change (min) in the time stayed in non-preferred compartment / Change (min) in the time stayed in preferred compartment: post- vs pre-conditioning, 15 minutes
# Procedure: 3. Test for Measuring Psychological Dependence on Tramadol by Assessment of Dependence Potential
# In order to measure psychological dependence which is one of the side effects of tramadol, a change in conditioned place preference (CPP) was measured. Conditioned place preference boxes are divided into three boxes, that is, a white box, a black box and a gray box, as shown in FIG. 8. The gray box is a meddle portion in which an animal can choose between the white box and the black box, and the gray box is […]. The black box has a bottom composed of stainless steel rods having a diameter of 4.8 mm and a spacing of 16 mm, and the white box has a bottom composed of stainless steel meshes having a size of 1.25×1.25 cm. The gray box is 12 cm in width, 22 cm in length, and 21 cm in height, and the white box and the black box are 28 cm in width, 21 cm in length, and 21 cm in height.
# A series of test procedures are as follows. 5-Week-old male Sprague-Dawley rats (SD rats) were purchased and acclimated for one week. Then, on days 1, 2 and 3 of the test (preconditioning step), in a state in which each rat was not treated with a drug or normal saline for injection, each rat was placed in the gray compartment, and then the door was opened and the time that each rat stayed in each compartment was measured for 15 minutes. Then, based on the mean of the measurement results, the compartment preferred by the rats in the preconditioning step (that is, the compartment in which the rats stayed longer, among the white compartment and the black compartment) was determined.
# The next step is a conditioning step corresponding to day 4 to day 11. On days 4, 6, 8 and 10, the corresponding dose of each of the Test Example and the Comparative Examples was administered by intraperitoneal injection to each rat, and after 30 minutes, the rats were adapted to the non-preferred compartment for 30 minutes so as to allow the rats to remember the non-preferred compartment in association with tramadol. On the remaining days 5, 7, 9 and 11, normal saline for injection was administered by intraperitoneal injection to the rats, and after 30 minutes, the rats were adapted to the preferred compartment for 30 minutes so as to allow the rats to remember the preferred compartment in association with the saline solution. On day 12 corresponding to a final step (post-conditioning step), in a state in which neither the drug nor normal saline for injection was administered to the rats, the rats were placed in the gray compartment, and then the door was opened and the time that the rats stayed in each compartment was measured for 15 minutes (see Table 7).
# The difference between the time that the rats stayed in the tramadol-associated place (non-preferred compartment) in the post-conditioning step and the time that the rats stayed in the non-preferred compartment in the pre-conditioning step indicates the tramadol-induced change in conditioned place preference, that is, psychological dependence on the drug.
# Next, based on the test results, the standardized J-T statistic and the significance level (p-value) were confirmed using a Jonckheere-terpstra test which is a non-parametric statistical method.
# [4] = tramadol 2.6 mg/kg intraperitoneal on days 4, 6, 8, 10
# [5] = tramadol 3.9 mg/kg intraperitoneal on days 4, 6, 8, 10
# [6] = tramadol 10.3 mg/kg intraperitoneal on days 4, 6, 8, 10
Compound,solubility in water ([1]; 20° C.) [mg/L],in vivo half-life [2],solubility in water [1],"Change (min) in the time stayed in non-preferred compartment [3, 4] [min]","Change (min) in the time stayed in preferred compartment [3, 4] [min]","Change (min) in the time stayed in non-preferred compartment [3, 5] [min]","Change (min) in the time stayed in preferred compartment [3, 5] [min]","Change (min) in the time stayed in non-preferred compartment [3, 6] [min]","Change (min) in the time stayed in preferred compartment [3, 6] [min]",psychological dependence on tramadol (FIG. 9) ([3]; tramadol 37.5 mg (Comparative Example 5) or 100 mg (Comparative Example 6) compared to Test Example 2 (tramadol 25 mg) and Comparative Example 4 (tramadol 0 mg)),blood half-life ([2]; in vivo)
Cc1ccc(-c2cc(C(F)(F)F)nn2-c2ccc(S(N)(=O)=O)cc2)cc1 [Celecoxib],3.3,about 11 hours,–,–,–,–,–,–,–,–,–
COc1cccc(C2(O)CCCCC2CN(C)C)c1 (centres unmarked) [tramadol],–,–,very soluble in water,1.3,-0.17,2.8,2.20,3.3,3.03,greatly increased,about 6 hours
